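Exposure lasted 48 hours, with cells grown in 96-well plates and compounds tested at five concentrations. The concentration for 50% growth inhibition is given as GI50.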 Active and inactive are the calls of the source. Cut-off read from the data, not from the text of the source: active = GI50 up to about 1.1 µM and inactive = higher.
Columns and labels:
Test in all cases: NCI anticancer screen, dose series, 48 h
786-0 = test system: 786-0
A498 = test system: A498
A549 = test system: A549
ACHN = test system: ACHN
CAKI-1 = test system: CAKI-1
CCRF-CEM = test system: CCRF-CEM
COLO 205 = test system: COLO 205
DLD-1 = test system: DLD-1
DMS-114 = test system: DMS-114
DMS-273 = test system: DMS-273
EKVX = test system: EKVX
HCC 2998 = test system: HCC 2998
HCT-116 = test system: HCT-116
HCT-15 = test system: HCT-15
HL-60 = test system: HL-60
HOP-18 = test system: HOP-18
HOP-62 = test system: HOP-62
HOP-92 = test system: HOP-92
HT-29 = test system: HT-29
IGROV-1 = test system: IGROV-1
K562 = test system: K562
KM12 = test system: KM12
LOX IMVI = test system: LOX IMVI
LXFL 529 = test system: LXFL 529
M14 = test system: M14
M19-MEL = test system: M19-MEL
MOLT-4 = test system: MOLT-4
Malme-3M = test system: Malme-3M
NCI-H226 = test system: NCI-H226
NCI-H23 = test system: NCI-H23
NCI-H460 = test system: NCI-H460
NCI-H522 = test system: NCI-H522
OVCAR-3 = test system: OVCAR-3
OVCAR-4 = test system: OVCAR-4
OVCAR-5 = test system: OVCAR-5
OVCAR-8 = test system: OVCAR-8
RPMI-8226 = test system: RPMI-8226
RXF 393 = test system: RXF 393
SF-268 = test system: SF-268
SF-295 = test system: SF-295
SF-539 = test system: SF-539
SK-MEL-28 = test system: SK-MEL-28
SK-MEL-2 = test system: SK-MEL-2
SK-MEL-5 = test system: SK-MEL-5
SK-OV-3 = test system: SK-OV-3
SN12C = test system: SN12C
SNB-19 = test system: SNB-19
SNB-75 = test system: SNB-75
SNB-78 = test system: SNB-78
SR = test system: SR
SW-620 = test system: SW-620
TK-10 = test system: TK-10
U-251 = test system: U-251
UACC-257 = test system: UACC-257
UACC-62 = test system: UACC-62
UO-31 = test system: UO-31
XF498 = test system: XF498
KM-20L2 = test system: KM-20L2

## N#CC(C(=O)CCC(=O)C(C#N)c1ccccc1)c1ccccc1 (stereo not drawn)
786-0
  GI50: > 100 µM (inactive)
A498
  GI50: > 100 µM (inactive)
A549
  GI50: > 100 µM (inactive)
ACHN
  GI50: > 100 µM (inactive)
CAKI-1
  GI50: > 100 µM (inactive)
CCRF-CEM
  GI50: > 100 µM (inactive)
COLO 205
  GI50: > 100 µM (inactive)
DLD-1
  GI50: > 100 µM (inactive)
DMS-114
  GI50: > 100 µM (inactive)
DMS-273
  GI50: > 100 µM (inactive)
EKVX
  GI50: > 100 µM (inactive)
HCC 2998
  GI50: > 100 µM (inactive)
HCT-116
  GI50: > 100 µM (inactive)
HCT-15
  GI50: > 100 µM
HL-60
  GI50: > 100 µM (inactive)
HOP-18
  GI50: > 100 µM (inactive)
HOP-62
  GI50: > 100 µM (inactive)
HOP-92
  GI50: > 100 µM (inactive)
HT-29
  GI50: > 100 µM (inactive)
IGROV-1
  GI50: > 100 µM (inactive)
K562
  GI50: > 100 µM (inactive)
KM12
  GI50: > 100 µM (inactive)
LOX IMVI
  GI50: > 100 µM (inactive)
LXFL 529
  GI50: > 100 µM (inactive)
M14
  GI50: > 100 µM (inactive)
M19-MEL
  GI50: > 100 µM (inactive)
MOLT-4
  GI50: > 100 µM (inactive)
Malme-3M
  GI50: > 100 µM (inactive)
NCI-H226
  GI50: > 100 µM (inactive)
NCI-H23
  GI50: > 100 µM (inactive)
NCI-H460
  GI50: > 100 µM (inactive)
NCI-H522
  GI50: > 100 µM (inactive)
OVCAR-3
  GI50: > 100 µM (inactive)
OVCAR-4
  GI50: > 100 µM (inactive)
OVCAR-5
  GI50: > 100 µM (inactive)
OVCAR-8
  GI50: > 100 µM (inactive)
RPMI-8226
  GI50: > 100 µM (inactive)
RXF 393
  GI50: > 100 µM (inactive)
SF-268
  GI50: > 100 µM (inactive)
SF-295
  GI50: > 100 µM (inactive)
SF-539
  GI50: > 100 µM (inactive)
SK-MEL-28
  GI50: > 100 µM (inactive)
SK-MEL-2
  GI50: > 100 µM (inactive)
SK-MEL-5
  GI50: > 100 µM (inactive)
SK-OV-3
  GI50: > 100 µM (inactive)
SN12C
  GI50: > 100 µM (inactive)
SNB-19
  GI50: > 100 µM (inactive)
SNB-75
  GI50: > 100 µM (inactive)
SNB-78
  GI50: > 100 µM (inactive)
SR
  GI50: > 100 µM (inactive)
SW-620
  GI50: > 100 µM (inactive)
TK-10
  GI50: > 100 µM (inactive)
U-251
  GI50: > 100 µM (inactive)
UACC-257
  GI50: > 100 µM (inactive)
UACC-62
  GI50: > 100 µM (inactive)
UO-31
  GI50: > 100 µM (inactive)
XF498
  GI50: > 100 µM (inactive)

## CC1C=C(CCCCCCCCCCCC[C@@H](O)[C@@H]2CC[C@@H]([C@@H]3CC[C@@H](C(O)CCCCCCCCCCCCC4=C[C@H](C)OC4=O)O3)O2)C(=O)O1 (stereo partly drawn)
786-0
  GI50: > 100 µM (inactive)
A498
  GI50: 75.7 µM (inactive)
A549
  GI50: 4.5 µM (inactive)
ACHN
  GI50: > 100 µM (inactive)
CAKI-1
  GI50: > 100 µM (inactive)
CCRF-CEM
  GI50: 5.36 µM (inactive)
COLO 205
  GI50: 41.2 µM (inactive)
DLD-1
  GI50: > 100 µM (inactive)
DMS-114
  GI50: 0.0697 µM (active)
DMS-273
  GI50: > 41 µM (inactive)
EKVX
  GI50: 1.44 µM (inactive)
HCC 2998
  GI50: > 100 µM (inactive)
HCT-15
  GI50: 57.5 µM
HL-60
  GI50: 5.41 µM (inactive)
HOP-18
  GI50: > 100 µM (inactive)
HOP-62
  GI50: > 100 µM (inactive)
HOP-92
  GI50: 21.9 µM (inactive)
HT-29
  GI50: > 79.1 µM (inactive)
IGROV-1
  GI50: > 71.1 µM (inactive)
K562
  GI50: 0.993 µM (active)
KM-20L2
  GI50: > 95.5 µM (inactive)
KM12
  GI50: > 68.1 µM (inactive)
LOX IMVI
  GI50: 12.2 µM (inactive)
LXFL 529
  GI50: 17.1 µM (inactive)
M14
  GI50: > 100 µM (inactive)
M19-MEL
  GI50: 31.2 µM (inactive)
MOLT-4
  GI50: 11.6 µM (inactive)
Malme-3M
  GI50: > 91.2 µM (inactive)
NCI-H226
  GI50: 31 µM (inactive)
NCI-H23
  GI50: < 0.0422 µM (active)
NCI-H460
  GI50: 0.881 µM (active)
NCI-H522
  GI50: 1.28 µM (inactive)
OVCAR-3
  GI50: 23 µM (inactive)
OVCAR-5
  GI50: > 100 µM (inactive)
OVCAR-8
  GI50: 25.5 µM (inactive)
RPMI-8226
  GI50: 0.518 µM (active)
RXF 393
  GI50: > 96.8 µM (inactive)
SF-268
  GI50: > 47.5 µM (inactive)
SF-295
  GI50: 0.078 µM (active)
SF-539
  GI50: 3.23 µM (inactive)
SK-MEL-28
  GI50: > 100 µM (inactive)
SK-MEL-2
  GI50: > 100 µM (inactive)
SK-MEL-5
  GI50: 0.0783 µM (active)
SK-OV-3
  GI50: > 100 µM (inactive)
SN12C
  GI50: > 100 µM (inactive)
SNB-19
  GI50: > 42.5 µM (inactive)
SNB-75
  GI50: > 80 µM (inactive)
SW-620
  GI50: > 57.3 µM (inactive)
TK-10
  GI50: > 100 µM (inactive)
U-251
  GI50: 23.7 µM (inactive)
UACC-257
  GI50: 0.387 µM (active)
UACC-62
  GI50: > 100 µM (inactive)
UO-31
  GI50: 6.67 µM (inactive)
XF498
  GI50: 17.9 µM (inactive)

## Cn1c(=O)nc2n(-c3cccc(F)c3)c3ccccc3nc-2c1=O
786-0
  GI50: 42 µM (inactive)
A498
  GI50: 39.9 µM (inactive)
A549
  GI50: 19 µM (inactive)
ACHN
  GI50: 8 µM (inactive)
CAKI-1
  GI50: 27.2 µM (inactive)
CCRF-CEM
  GI50: 19.4 µM (inactive)
COLO 205
  GI50: 6.11 µM (inactive)
DLD-1
  GI50: 25.3 µM (inactive)
DMS-273
  GI50: 13.8 µM (inactive)
EKVX
  GI50: 13.8 µM (inactive)
HCC 2998
  GI50: 13.4 µM (inactive)
HCT-116
  GI50: 23.6 µM (inactive)
HCT-15
  GI50: 16.6 µM
HOP-18
  GI50: 34.1 µM (inactive)
HOP-62
  GI50: 53.2 µM (inactive)
HT-29
  GI50: 5.92 µM (inactive)
IGROV-1
  GI50: 26.8 µM (inactive)
K562
  GI50: 19.6 µM (inactive)
KM-20L2
  GI50: 12.3 µM (inactive)
KM12
  GI50: 23.1 µM (inactive)
LOX IMVI
  GI50: 18.1 µM (inactive)
LXFL 529
  GI50: 37.8 µM (inactive)
M14
  GI50: 18.7 µM (inactive)
M19-MEL
  GI50: 2.11 µM (inactive)
MOLT-4
  GI50: 23.1 µM (inactive)
Malme-3M
  GI50: 14.4 µM (inactive)
NCI-H226
  GI50: 29.6 µM (inactive)
NCI-H23
  GI50: 12.1 µM (inactive)
NCI-H460
  GI50: 11.6 µM (inactive)
NCI-H522
  GI50: 16.6 µM (inactive)
OVCAR-3
  GI50: 3.57 µM (inactive)
OVCAR-4
  GI50: 14.7 µM (inactive)
OVCAR-5
  GI50: 33.7 µM (inactive)
OVCAR-8
  GI50: 23.2 µM (inactive)
RPMI-8226
  GI50: 20.5 µM (inactive)
RXF 393
  GI50: 67.9 µM (inactive)
SF-268
  GI50: 43.3 µM (inactive)
SF-295
  GI50: 24.9 µM (inactive)
SF-539
  GI50: 25.4 µM (inactive)
SK-MEL-2
  GI50: 20.3 µM (inactive)
SK-MEL-5
  GI50: 14.2 µM (inactive)
SK-OV-3
  GI50: > 100 µM (inactive)
SN12C
  GI50: 23.6 µM (inactive)
SNB-19
  GI50: 21.9 µM (inactive)
SNB-75
  GI50: 24.8 µM (inactive)
SNB-78
  GI50: 23.5 µM (inactive)
SW-620
  GI50: 11.1 µM (inactive)
TK-10
  GI50: 31.6 µM (inactive)
U-251
  GI50: 19.3 µM (inactive)
UACC-257
  GI50: 12.8 µM (inactive)
UACC-62
  GI50: 3.12 µM (inactive)
UO-31
  GI50: 52 µM (inactive)

Source: ChEMBL document CHEMBL1201862, “PubChem BioAssay data set” (2004)
